Assay: xn = mol fraction of the nth substance listed
Details: for surface tension liquid-gas: Maximal bubble pressure; for mass density: 100 kPa, Liquid, Vibrating tube method

COCC[n+]1ccn(C)c1.O=S(=O)([N-]S(=O)(=O)C(F)(F)F)C(F)(F)F + CO
Details | mass density [kg/m3] | surface tension liquid-gas [mN/m]
288.15 K, x1 = 0.1004 | 1121.11 | 26.6
288.15 K, x1 = 0.2003 | 1263.18 | 28.5
288.15 K, x1 = 0.2814 | 1330.61 | 29.6
288.15 K, x1 = 0.4004 | 1394.19 | 31.5
288.15 K, x1 = 0.4987 | 1429.08 | 33.1
288.15 K, x1 = 0.5949 | 1454.46 | 34.8
288.15 K, x1 = 0.704 | 1476.43 | 36.9
288.15 K, x1 = 0.8042 | 1492.31 | 38.6
288.15 K, x1 = 0.9003 | 1504.71 | 40.1
288.15 K, x1 = 1 | 1515.3 | 41.4
293.15 K, x1 = 0.1004 | 1116 | 26.2
293.15 K, x1 = 0.2003 | 1257.97 | 28.1
293.15 K, x1 = 0.2814 | 1325.38 | 29.3
293.15 K, x1 = 0.4004 | 1388.96 | 31.1
293.15 K, x1 = 0.4987 | 1423.86 | 32.8
293.15 K, x1 = 0.5949 | 1449.25 | 34.5
293.15 K, x1 = 0.704 | 1471.24 | 36.6
293.15 K, x1 = 0.8042 | 1487.14 | 38.3
293.15 K, x1 = 0.9003 | 1499.56 | 39.8
293.15 K, x1 = 1 | 1510.15 | 41.2
298.15 K, x1 = 0.1004 | 1110.88 | 25.7
298.15 K, x1 = 0.2003 | 1252.76 | 27.7
298.15 K, x1 = 0.2814 | 1320.14 | 28.9
298.15 K, x1 = 0.4004 | 1383.74 | 30.8
298.15 K, x1 = 0.4987 | 1418.64 | 32.5
298.15 K, x1 = 0.5949 | 1444.06 | 34.2
298.15 K, x1 = 0.704 | 1466.08 | 36.4
298.15 K, x1 = 0.8042 | 1481.99 | 38.1
298.15 K, x1 = 0.9003 | 1494.42 | 39.6
298.15 K, x1 = 1 | 1505.03 | 41
303.15 K, x1 = 0.1004 | 1105.74 | 25.2
303.15 K, x1 = 0.2003 | 1247.54 | 27.3
303.15 K, x1 = 0.2814 | 1314.92 | 28.6
303.15 K, x1 = 0.4004 | 1378.52 | 30.5
303.15 K, x1 = 0.4987 | 1413.44 | 32.2
303.15 K, x1 = 0.5949 | 1438.88 | 34
303.15 K, x1 = 0.704 | 1460.92 | 36.1
303.15 K, x1 = 0.8042 | 1476.85 | 37.8
303.15 K, x1 = 0.9003 | 1489.3 | 39.4
303.15 K, x1 = 1 | 1499.92 | 40.7
308.15 K, x1 = 0.1004 | 1100.6 | 24.6
308.15 K, x1 = 0.2003 | 1242.33 | 26.9
308.15 K, x1 = 0.2814 | 1309.69 | 28.2
308.15 K, x1 = 0.4004 | 1373.31 | 30.1
308.15 K, x1 = 0.4987 | 1408.26 | 31.9
308.15 K, x1 = 0.5949 | 1433.72 | 33.7
308.15 K, x1 = 0.704 | 1455.77 | 35.8
308.15 K, x1 = 0.8042 | 1471.73 | 37.6
308.15 K, x1 = 0.9003 | 1484.2 | 39.1
308.15 K, x1 = 1 | 1494.83 | 40.5
313.15 K, x1 = 0.1004 | 1095.44 | 24.2
313.15 K, x1 = 0.2003 | 1237.11 | 26.5
313.15 K, x1 = 0.2814 | 1304.47 | 27.8
313.15 K, x1 = 0.4004 | 1368.12 | 29.9
313.15 K, x1 = 0.4987 | 1403.08 | 31.6
313.15 K, x1 = 0.5949 | 1428.57 | 33.4
313.15 K, x1 = 0.704 | 1450.64 | 35.6
313.15 K, x1 = 0.8042 | 1466.63 | 37.4
313.15 K, x1 = 0.9003 | 1479.12 | 38.9
313.15 K, x1 = 1 | 1489.77 | 40.3
318.15 K, x1 = 0.1004 | 1090.28 | 23.8
318.15 K, x1 = 0.2003 | 1231.89 | 26.1
318.15 K, x1 = 0.2814 | 1299.25 | 27.5
318.15 K, x1 = 0.4004 | 1362.93 | 29.6
318.15 K, x1 = 0.4987 | 1397.92 | 31.4
318.15 K, x1 = 0.5949 | 1423.44 | 33.2
318.15 K, x1 = 0.704 | 1445.47 | 35.4
318.15 K, x1 = 0.8042 | 1461.52 | 37.1
318.15 K, x1 = 0.9003 | 1474.06 | 38.7
318.15 K, x1 = 1 | 1484.72 | 40.1

COCC[n+]1ccn(C)c1.O=S(=O)([N-]S(=O)(=O)C(F)(F)F)C(F)(F)F + CCO
Details | mass density [kg/m3] | surface tension liquid-gas [mN/m]
288.15 K, x1 = 0.1003 | 1055.22 | 24.8
288.15 K, x1 = 0.2 | 1197.64 | 25.9
288.15 K, x1 = 0.2972 | 1285.52 | 27.5
288.15 K, x1 = 0.401 | 1350.45 | 29.3
288.15 K, x1 = 0.5028 | 1396.83 | 31.5
288.15 K, x1 = 0.5982 | 1430.26 | 33.8
288.15 K, x1 = 0.6973 | 1457.78 | 35.8
288.15 K, x1 = 0.8111 | 1483.2 | 38.2
288.15 K, x1 = 0.8991 | 1499.41 | 39.7
288.15 K, x1 = 1 | 1515.3 | 41.4
293.15 K, x1 = 0.1003 | 1050.42 | 24.4
293.15 K, x1 = 0.2 | 1192.63 | 25.5
293.15 K, x1 = 0.2972 | 1280.42 | 27.1
293.15 K, x1 = 0.401 | 1345.31 | 29
293.15 K, x1 = 0.5028 | 1391.67 | 31.3
293.15 K, x1 = 0.5982 | 1425.1 | 33.5
293.15 K, x1 = 0.6973 | 1452.62 | 35.5
293.15 K, x1 = 0.8111 | 1478.06 | 38
293.15 K, x1 = 0.8991 | 1494.28 | 39.5
293.15 K, x1 = 1 | 1510.15 | 41.2
298.15 K, x1 = 0.1003 | 1045.8 | 23.9
298.15 K, x1 = 0.2 | 1187.81 | 25
298.15 K, x1 = 0.2972 | 1275.51 | 26.8
298.15 K, x1 = 0.401 | 1340.28 | 28.7
298.15 K, x1 = 0.5028 | 1386.61 | 31
298.15 K, x1 = 0.5982 | 1420.05 | 33.2
298.15 K, x1 = 0.6973 | 1447.54 | 35.3
298.15 K, x1 = 0.8111 | 1472.95 | 37.7
298.15 K, x1 = 0.8991 | 1489.16 | 39.2
298.15 K, x1 = 1 | 1505.03 | 41
303.15 K, x1 = 0.1003 | 1040.76 | 23.5
303.15 K, x1 = 0.2 | 1182.58 | 24.7
303.15 K, x1 = 0.2972 | 1270.2 | 26.5
303.15 K, x1 = 0.401 | 1335.02 | 28.4
303.15 K, x1 = 0.5028 | 1381.37 | 30.7
303.15 K, x1 = 0.5982 | 1414.81 | 33
303.15 K, x1 = 0.6973 | 1442.35 | 35
303.15 K, x1 = 0.8111 | 1467.8 | 37.5
303.15 K, x1 = 0.8991 | 1484.03 | 39
303.15 K, x1 = 1 | 1499.92 | 40.7
308.15 K, x1 = 0.1003 | 1035.9 | 23.1
308.15 K, x1 = 0.2 | 1177.54 | 24.4
308.15 K, x1 = 0.2972 | 1265.09 | 26.2
308.15 K, x1 = 0.401 | 1329.88 | 28.1
308.15 K, x1 = 0.5028 | 1376.24 | 30.4
308.15 K, x1 = 0.5982 | 1409.68 | 32.7
308.15 K, x1 = 0.6973 | 1437.23 | 34.8
308.15 K, x1 = 0.8111 | 1462.7 | 37.2
308.15 K, x1 = 0.8991 | 1478.94 | 38.8
308.15 K, x1 = 1 | 1494.83 | 40.5
313.15 K, x1 = 0.1003 | 1031.02 | 22.6
313.15 K, x1 = 0.2 | 1172.49 | 24
313.15 K, x1 = 0.2972 | 1259.99 | 25.8
313.15 K, x1 = 0.401 | 1324.76 | 27.8
313.15 K, x1 = 0.5028 | 1371.12 | 30.1
313.15 K, x1 = 0.5982 | 1404.57 | 32.5
313.15 K, x1 = 0.6973 | 1432.14 | 34.5
313.15 K, x1 = 0.8111 | 1457.62 | 37
313.15 K, x1 = 0.8991 | 1473.87 | 38.6
313.15 K, x1 = 1 | 1489.77 | 40.3
318.15 K, x1 = 0.1003 | 1026.12 | 22.3
318.15 K, x1 = 0.2 | 1167.43 | 23.7
318.15 K, x1 = 0.2972 | 1254.88 | 25.5
318.15 K, x1 = 0.401 | 1319.64 | 27.5
318.15 K, x1 = 0.5028 | 1366.01 | 29.9
318.15 K, x1 = 0.5982 | 1399.48 | 32.2
318.15 K, x1 = 0.6973 | 1427.07 | 34.3
318.15 K, x1 = 0.8111 | 1452.56 | 36.8
318.15 K, x1 = 0.8991 | 1468.81 | 38.3
318.15 K, x1 = 1 | 1484.72 | 40.1

Source: the NIST ThermoML archive (doi:10.1016/j.jct.2019.06.005)
